Read-outs that look alike come from different tables or passages of the source.
Assays:
human p38 kinase alpha = target: T1, human p38 kinase alpha (Homo sapiens, UniProt Q16539); test: p38 kinase in vitro assay; type: biochemical
T1 construct: The coding region of the human p38 cDNA was obtained by PCR-amplification from RNA isolated from the human monocyte cell line THP.1; GST (N); made in house; host or cells: E. coli DH10B
Method: The ability of compounds to inhibit human p38 kinase alpha was evaluated using two in vitro assay methods. In the first method, activated human p38 kinase alpha phosphorylates a biotinylated substrate, PHAS-I (phosphorylated heat and acid stable protein-insulin inducible), in the presence of gamma ^32p-ATP (^32P-ATP). PHAS-I was biotinylated prior to the assay and provides a means of capturing the substrate, which is phosphorylated during the assay. p38 Kinase was activated by MKK6. Compounds were tested in 10 fold serial dilutions over the range of 100 μM to 0,001 μM using 1% DMSO. Each concentration of inhibitor was tested in triplicate.
All reactions were carried out in 96 well polypropylene plates. Each reaction well contained 25 mM HEPES pH 7.5, 10 mM magnesium acetate and 50 μM unlabeled ATP. […] Activated human p38 kinase alpha was used at 1 μg per 50 μl reaction volume representing a final concentration of 0.3 μM. Gamma ^32P-ATP was used to follow the phosphorylation of PHAS-I. ^32P-ATP has a specific activity of 3000 Ci/mmol and was used at 1.2 μCi per 50 μl reaction volume. The reaction proceeded either for one hour or overnight at 30° C.
Following incubation, 20 μl of reaction mixture was transferred to a high capacity streptavidin coated filter plate (SAM-streptavidin-matrix, Promega) prewetted with phosphate buffered saline, The transferred reaction mix was allowed to contact the streptavidin membrane of the Promega plate for 1-2 minutes. […] Filter plates were air-dried and 20 μl of scintillant was added. The plates were sealed and counted.
A second assay format was also employed that is based on p38 kinase alpha induced phosphorylation of EGFRP (epidermal growth factor receptor peptide, a 21 mer) in the presence ^33P-ATP. Compounds were tested in 10 fold serial dilutions over the range of 100 μM to 0.001 μM in 1% DMSO. Each concentration of inhibitor was tested in triplicate. Compounds were evaluated in 50 μl reaction volumes in the presence of 25 mM Hepes pH 7.5, 10 mM magnesium acetate, 4% glycerol, 0.4% bovine serum albumin, 0.4 mM DTT, 50 μM unlabeled ATP, 25 μg EGFRP (200 μM), and 0.05 μCi ^33p-ATP. Reactions were initiated by addition of 0.09 μg of activated, purified human GST-p38 kinase alpha. Activation was carried out using GST-MKK6 (5:1,p38:MKK6) for one hour at 30° C. in the presence of 50 μM ATP. Following incubation for 60 minutes at room temperature, the reaction was stopped by addition of 150 μl of AG 1×8 resin in 900 mM sodium formate buffer, pH 3.0 (1 volume resin to 2 volumes buffer). The mixture was mixed three times with pipetting and the resin was allowed to settle. A total of 50 μl of clarified solution head volume was transferred from the reaction wells to Microlite-2 plates. 150 μl of Microscint 40 was then added to each well of the Microlite plate, and the plate was sealed, mixed, and counted.

[1] = Table II, several values in a cell = repeat determinations, read-out: p38A
[2] = Table III, n = number of times assayed, n=1 if not reported, read-out: p38 Alpha IC50
[3] = Table I, average of n trials, n=1 if not reported, read-out: p38 Alpha IC50

T1 sequence (Q16539 whole entry): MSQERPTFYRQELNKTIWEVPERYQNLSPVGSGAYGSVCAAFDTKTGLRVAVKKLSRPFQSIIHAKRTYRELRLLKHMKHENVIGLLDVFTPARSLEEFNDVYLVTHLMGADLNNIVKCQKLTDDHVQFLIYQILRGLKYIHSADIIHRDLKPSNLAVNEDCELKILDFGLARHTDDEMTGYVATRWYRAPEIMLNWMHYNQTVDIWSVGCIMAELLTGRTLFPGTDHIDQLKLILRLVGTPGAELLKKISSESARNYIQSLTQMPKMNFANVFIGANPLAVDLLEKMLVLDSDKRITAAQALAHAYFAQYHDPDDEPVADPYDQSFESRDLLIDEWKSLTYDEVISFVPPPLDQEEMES

Structure (SMILES)	melting point [°C]	other results
O=c1cc(OCc2c(Cl)cccc2Cl)ccn1Cc1ccccc1 [Example 40, 1-Benzyl-4-[2,6-(dichlorobenzyl)oxy]pyridin-2(1H)-one]	151.6 to 152	–
O=c1cc(OCc2ccccc2Cl)ccn1Cc1ccccc1 [Example 42, 1-Benzyl-4-[(2-chlorobenzyl)oxy]pyridin-2(1H)-one]	124.6 to 125	–
O=c1c(Br)c(SCc2ccccc2)ccn1Cc1ccccc1 [Example 46]	180.6 to 182.1	–
Cc1ccc(Cn2ccc(OCc3ccccc3)cc2=O)cc1 [Example 1, 4-(benzyloxy)-1-(4-methylbenzyl)pyridin-2(1H)-one]	142.8 to 143.3	–
O=c1c(Br)c(O)ccn1Cc1ccc(O)cc1 [Example 21, 3-bromo-4-hydroxy-1-(4-hydroxybenzyl)pyridin-2(1H)-one]	102 to 108	–
Cl.O=c1c(Br)c(OCc2ccccc2)ccn1CC1CCCNC1 (stereo not drawn)	138.1 to 139.2	–
O=c1cc(OCc2cccc(Cl)c2)ccn1Cc1ccccc1 [Example 45, 1-Benzyl-4-[(3-chlorobenzyl)oxy]pyridin-2(1H)-one]	95.5 to 95.7	–
Cn1ccc(OCc2ccccc2)c(Br)c1=O [Example 23, 4-(benzyloxy)-3-bromo-1-methylpyridin-2(1H)-one]	61.3 to 64.8	–
Cl.O=c1c(Br)c(OCc2ccccc2)ccn1CC1CCNCC1	207.9	–
O=c1c(Br)c(OCc2ccccc2)ccn1CC1CCNCC1 [III]	–	IC50 (human p38 kinase alpha; [1]): 90.9 µM
Cn1ccc(OCc2ccccc2)c(Br)c1=O [GGG]	–	IC50 (human p38 kinase alpha; [1]): 13.2 µM
Cc1cc(OCc2cccc(Cl)c2)c(Br)c(=O)n1Cc1ccccc1 [CCC]	–	IC50 (human p38 kinase alpha; [1]): 1.6 µM
Cc1cc(OCc2ccccc2)cc(=O)n1Cc1ccccc1 [OOOO]	–	IC50 (human p38 kinase alpha; [1]): 38.7 µM
O=c1c(I)c(OCc2ccccc2)ccn1Cc1cccc(F)c1 [PPPPP]	–	IC50 (human p38 kinase alpha; [2]): 1.76 µM
Cc1cc(OCc2ccccc2)c(Br)c(=O)n1Cc1ccccc1 [XX]	–	IC50 (human p38 kinase alpha; [1]): 0.219 µM
O=c1c(Br)c(OCc2ccc(F)cc2)ccn1Cc1cccc(Cl)c1 [IIIII]	–	IC50 (human p38 kinase alpha; [2]): 1.14 µM
O=c1c(Br)c(OCc2ccccc2)ccn1Cc1ccc(C(F)(F)F)cc1 [MMMMM]	–	IC50 (human p38 kinase alpha; [2]): 1.53 µM
O=c1c(Br)c(OCc2ccccc2Cl)ccn1Cc1ccccc1 [NN]	–	IC50 (human p38 kinase alpha; [1]): 2.03 µM
O=c1cc(OCc2ccccc2)ccn1Cc1ccc(F)cc1 [NNNN]	–	IC50 (human p38 kinase alpha; [1]): 64.8 µM
O=c1c(Br)c(OCc2ccc(F)cc2)ccn1Cc1ccc(F)cc1 [B]	–	IC50 (human p38 kinase alpha; [3]): 0.403 µM
O=c1c(Cl)c(OCc2ccccc2)ccn1Cc1ccccc1 [X]	–	IC50 (human p38 kinase alpha; [3]): 0.45 µM
Cc1cc(OCc2ccc(F)cc2F)c(Br)c(=O)n1Cc1cccnc1 [F]	–	IC50 (human p38 kinase alpha; [3]): 0.132 µM
Cc1cc(OCc2ccc(F)cc2F)c(Br)c(=O)n1-c1c(Cl)cccc1Cl [G]	–	IC50 (human p38 kinase alpha; [3]): 0.179 µM
O=c1c(Br)c(OCc2ccccc2)ccn1Cc1ccc(F)nc1 [RRRRR]	–	IC50 (human p38 kinase alpha; [2]): 1.85 µM

Further lines, with some results ahead:

melting point [°C]	Structure (SMILES)	other results
143.3 to 145.5	O=c1c(Br)c(OCc2ccccc2Cl)ccn1Cc1ccccc1 [Example 43, 1-Benzyl-3-bromo-4-[(2-chlorobenzyl)oxy]pyridin-2(1H)-one]	–
61.3 to 64.8	CCn1ccc(OCc2ccccc2)c(Br)c1=O [Example 20, 4-(benzyloxy)-3-bromo-1-ethylpyridin-2(1H)-one]	–
156.3 to 157.9	O=c1c(Br)c(OCc2c(Cl)cccc2Cl)ccn1Cc1ccccc1 [Example 461, 1-Benzyl-3-bromo-4-[2,6-(dichlorobenzyl)oxy]pyridin-2(1H)-one]	–
181.5 to 181.6	O=c1c(Br)c(OCc2ccccc2)ccn1Cc1cccc(C(F)(F)F)c1 [Example 31, 4-(benzyloxy)-3-bromo-1-[3-(trifluoromethyl)benzyl]pyridin-2(1H)-one]	–
133.2 to 133.5	O=c1c(Br)c(OCc2ccccc2C(F)(F)F)ccn1Cc1ccccc1 [Example 47, 1-Benzyl-3-bromo-4-{[2-(trifluoromethyl)benzyl]oxy}pyridin-2(1H)-one]	–
128 to 129.5	O=c1c(Br)c(OCc2ccccc2)ccn1CCc1cccs1 [Example 30, 4-(benzyloxy)-3-bromo-1-(2-thien-2-ylethyl)pyridin-2(1H)-one]	–
150.4 to 151.2	Cc1ccc(Cn2ccc(OCc3ccccc3)c(Br)c2=O)cc1 [Example 2, 4-(benzyloxy)-3-bromo-1-(4-methylbenzyl)pyridin-2(1H)-one]	–
149 to 149.7	Cc1ccc(COc2ccn(Cc3ccccc3)c(=O)c2Br)cc1 [Example 44, 1-Benzyl-3-bromo-4-[(4-methylbenzyl)oxy]pyridin-2(1H)-one]	–
210.2 to 212.2	NC(=NO)c1ccc(Cn2ccc(OCc3ccccc3)c(Br)c2=O)cc1 [Example 24, 4-{[4-(benzyloxy)-3-bromo-2-oxopyridin-1(2H)-yl]methyl}-N′-hydroxybenzenecarboximidamide]	–
250.8 to 255.7	O=C(O)c1ccc(Cn2ccc(OCc3ccccc3)c(Br)c2=O)cc1 [Example 15, 4-{[4-(benzyloxy)-3-bromo-2-oxopyridin-1(2H)-yl]methyl}benzoic acid]	–
134 to 134.3	O=c1c(Br)c(OCc2ccccc2)ccn1CCc1ccsc1 [Example 29, 4-(benzyloxy)-3-bromo-1-(2-thien-3-ylethyl)pyridin-2(1H)-one]	–
137.6 to 144.3	O=c1c(Br)c(OCc2ccccc2)ccn1Cc1ccc(OCc2ccccc2)cc1 [Example 12, 4-(benzyloxy)-1-[4-(benzyloxy)benzyl]-3-bromopyridin-2(1H)-one]	–
